Read-outs that look alike come from different tables or passages of the source. No end group written: not given here.
What was measured:
[1] = test system: Leishmania donovani intracellular amastigotes; conditions: 50 μM miltefosine control; cited from earlier work
Procedure: Transgenic L. donovani promastigotes constitutively expressing mCherry and THP-1 macrophages were cultured as described above. Metacyclic promastigotes were isolated using a Ficoll-400 density gradient as previously described ([70]). Differentiated macrophages were exposed to parasites for 4 h at a multiplicity of infection (MOI) of 10 parasites:1 macrophage. After 4 h, the macrophages were washed thoroughly with 1× phosphate-buffered saline (PBS) (pH 7.4) and incubated overnight at 37°C with 5% CO2. Macrophages were transferred to 96-well plates at 5 × 10^6 cells/mL and exposed to antimicrobi ...

[2] = test system: Leishmania donovani axenic amastigotes; conditions: 50 μM miltefosine control; cited from earlier work
Procedure: (§1) Axenic amastigotes were differentiated as described previously ([69]); briefly, transgenic L. donovani promastigotes expressing mCherry were differentiated by pH and temperature shifts. Amastigotes were seeded into 96-well plates at 5 × 10^6 cells/mL and incubated for 48 h in the presence of decreasing drug concentrations, starting at 20 μM, along with the appropriate solvent controls. Fluorescence was monitored (587-nm excitation/610-nm emission) over 48 h using a FlexStation 3 benchtop multimode reader (Molecular Devices). At 50 μM miltefosine, 99% parasite inhibition is observed. Thus, chan ...

[3] = test system: Leishmania pifanoi axenic amastigotes; conditions: full-length enterocin AS-48; read-out: IC50 against Leishmania pifanoi axenic amastigotes; cited from earlier work
From the text: Enterocin AS-48, a class I bacteriocin, has been well characterized and is currently being investigated for use as an antimicrobial drug against a large variety of infectious disease agents ([45]). Enterocin AS-48 is a ribosomally produced, circularized bacteriocin encoded by Enterococcus faecalis subsp. liquefaciens strain S-48, which undergoes head-to-tail macrocyclization as a posttranslational modification ([46]). Efforts to engineer synthetic enterocin AS-48 have been made in order to improve mass production and bioactivity. Previously, segments of the bacteriocin have undergone α-ketoaci ...

[4] = test system: intracellular amastigotes; conditions: previously shown; cited from earlier work
From the text: As Leishmania spp. are obligate intracellular parasites, intracellular amastigote IC50 value determination is necessary to understand the clinical relevance of the 10 antileishmanial peptide drug candidates.

[5] = test system: axenic amastigotes; conditions: previous data used to set the 20 μM screening concentration; read-out: IC50 of enterocin AS-48 (previous data); cited from earlier work
Procedure: We utilized a previously developed high-throughput screening assay using transgenic axenic amastigotes expressing a red fluorescent protein, mCherry. Changes in mCherry fluorescence were normalized to 50 μM miltefosine in order to quantify parasite inhibition ([52]). In total, 5 scaffold 25-mer peptides and 475 synthetic 25-mer peptide variants were screened (Fig. 1). […] The assa ... || In this work, we determined the efficacy and cytotoxicity of 480 synthetic, minimal AS-48 bacteriocin homolog peptide variants against L. donovani using phenotypic in vitro fluorometric assays. […] This study illustrates the successful use of rational design using the minimal domain of naturally occurring bacteriocin scaffolds to increase leishmanicidal activity.

[6] = test system: Leishmania donovani axenic amastigotes; conditions: 48 h
Procedure: We utilized a previously developed high-throughput screening assay using transgenic axenic amastigotes expressing a red fluorescent protein, mCherry. Changes in mCherry fluorescence were normalized to 50 μM miltefosine in order to quantify parasite inhibition ([52]). In total, 5 scaffold 25-mer peptides and 475 synthetic 25-mer peptide variants were screened (Fig. 1). […] The assay was repeated, and the average percent parasite killing was determined.
Axenic amastigotes were differentiated as described previously ([69]).
as §1, with “[…] Thus, changes in mCherry fluorescence were normalized to the” for “At”, “miltefosine control in order to quantify” for “miltefosine, 99%”, “inhibition. Each assay was performed in triplicate. The IC50 values were calculated by nonlinear regression analysis using GraphPad Prism 9.0 for Windows.” for “inhibition is observed. Thus, chan ...”

[7] = test system: THP-1 macrophages; assay: Cytotoxicity against THP-1 macrophages (CellTiter-Blue); format: cell-based, human
Procedure: THP-1 (human acute monocytic leukemia-derived) host macrophages were cultured in RPMI 1640 supplemented with 10% FCS and a penicillin-streptomycin antibiotic solution (10,000 U/mL penicillin, 10,000 μg/mL streptomycin) at 37°C with 5% CO2. THP-1 cells were incubated with 0.25 μM phorbol 12-myristate […] (PMA) for 48 h to differentiate into mature macrophages. Differentiated macrophages were seeded into 96-well plates at 5 × 10^6 cells/mL and incubated for 48 h in the presence of 20 μM antimicrobial peptides along with the appropriate solvent controls. Cell viability assays were conducted using CellTiter-Blue (Promega), based on resazurin reduction. After the 48-h incubation period, CellTiter-Blue reagent was added to cells for 4 h at 37°C, and fluorescence was measured (555-nm excitation/580-nm emission) using a FlexStation 3 benchtop multimode reader (Molecular Devices). Each assay was performed in triplicate. The CC50 values were calculated by nonlinear regression analysis using GraphPad Prism 9.0 for Windows.

[8] = read-out: Axenic amastigotes Mean IC50 ± SD, L. donovani mCherry axenic amastigotes, fluorescence normalized to 50 μM miltefosine, highest concentration 20 μM, mean of three replicates

| Compound | IC50 [6] | THP-1 macrophage CC50 [7] | THP-1 macrophage CC50 ([7]; 48 h) | IC50 [6, 8] | also measured |
| --- | --- | --- | --- | --- | --- |
| CCCCCCCCCCCCCCCCOP(=O)([O-])OCC[N+](C)(C)C [miltefosine] |  |  |  |  | Intracellular parasite inhibition [1]: 99%; Parasite inhibition (axenic amastigotes) [2]: 99% |
| enterocin AS-48 |  |  |  |  | IC50 [3]: 10.2 ± 1.2 µM; Activity against intracellular amastigotes [4]: limited activity; IC50 [5]: ~20 µM |
| AGKEKIRKKLKNEIKKKGRKAWIAW [Syn-safencin 72] | 12.07 ± 0.09 µM | > 20 µM | >20 µM |  |  |
| AGKKTIRQYLKNKIKKKWRKAVIAW [Syn-safencin-52] |  | < 20 µM |  | 0.58 µM |  |
| WGKETIFQRLKKKIQEKGKRATIAW [Syn-larvacin-11] |  | below 20 μM |  | 0.66 µM |  |
| AGRQALTLYLKEELRKFWKKARIAW [Syn-xiamencin-21] |  | < 20 µM |  | 0.59 µM |  |
| AGRQALTLYLKEELRKRGKKWFIAW [Syn-xiamencin-33] |  | < 20 µM |  | 2.66 µM |  |
| AWANRLTKELLEYLRKFGKIARKAW [Syn-xiamencin-32] |  | < 20 µM |  | 0.89 µM |  |
| AGKEKIRQYLKNEIKKKGRKAVWAW [Syn-safencin 77] | 0.39 ± 0.13 µM | > 20 µM | >20 µM |  |  |
| AGKETIRQYLKNEIKKKGRKAVWAW [Syn-safencin 73] | 0.35 ± 0.08 µM | > 20 µM | >20 µM |  |  |
